Organism: Rattus norvegicus
Test: DrugMatrix - Regimen: Daily Repeat
Type: toxicity, organism-based, Sprague-Dawley
Parameters: regimen Daily Repeat, gender Male, age 6-8 weeks
Conditions: in vivo, po, route oral GAVAGE, vehicle 100 % WATER; for ABSOLUTE BASOPHIL / ABSOLUTE EOSINOPHIL / ABSOLUTE LYMPHOCYTE / ABSOLUTE MONOCYTE / ABSOLUTE SEGMENTED NEUTROPHIL / BASOPHIL / EOSINOPHIL / ERYTHROCYTE COUNT / HEMATOCRIT / HEMOGLOBIN / LEUKOCYTE COUNT / LYMPHOCYTE / MEAN CORPUSCULAR HEMOGLOBIN / MEAN CORPUSCULAR HEMOGLOBIN CONCENTRATION / MEAN CORPUSCULAR VOLUME / MONOCYTE / NEUTROPHIL / NUCLEATED RED BLOOD CELLS / PLATELET COUNT: tissue Blood; for ALANINE AMINOTRANSFERASE / ALBUMIN / ALKALINE PHOSPHATASE / ASPARTATE AMINOTRANSFERASE / BLOOD UREA NITROGEN / CARBON DIOXIDE / CHLORIDE / CHOLESTEROL / CREATINE PHOSPHOKINASE / CREATININE / GLUCOSE / LACTATE DEHYDROGENASE / LIPASE / PHOSPHORUS / SODIUM / TOTAL BILIRUBIN / TOTAL PROTEIN / URIC ACID: tissue Plasma
[1] = 200 mg/kg, 120 h, dose level Low, time 5 day
[2] = 1100 mg/kg, 72 h, dose level High, time 3 day
[3] = 1100 mg/kg, 120 h, dose level High, time 5 day

## CC1(C)S[C@@H]2[C@H](NC(=O)[C@H](N)c3ccc(O)cc3)C(=O)N2[C@H]1C(=O)O [AMOXICILLIN]
[1]
  ABSOLUTE BASOPHIL: 0 CELLS/uL
  ABSOLUTE EOSINOPHIL: 0 CELLS/uL
  ABSOLUTE LYMPHOCYTE: 6222 CELLS/uL
  ABSOLUTE MONOCYTE: 124 CELLS/uL
  ABSOLUTE SEGMENTED NEUTROPHIL: 487.33 CELLS/uL
  BASOPHIL: 0%
  EOSINOPHIL: 0%
  ERYTHROCYTE COUNT: 5.52 x10E6/uL
  HEMATOCRIT: 34.17%
  HEMOGLOBIN: 13.17 G/DL
  LEUKOCYTE COUNT: 6.83 x10E3/uL
  LYMPHOCYTE: 90.67%
  MEAN CORPUSCULAR HEMOGLOBIN: 23.87 pg
  MEAN CORPUSCULAR HEMOGLOBIN CONCENTRATION: 38.53 G/DL
  MEAN CORPUSCULAR VOLUME: 61.87 fL
  MONOCYTE: 2%
  NEUTROPHIL: 7.33%
  NUCLEATED RED BLOOD CELLS: 0 /100WBC
  PLATELET COUNT: 1169.67 x10E3/uL
  ALANINE AMINOTRANSFERASE: 61.67 u/L
  ALBUMIN: 4.07 G/DL
  ALKALINE PHOSPHATASE: 419.67 u/L
  ASPARTATE AMINOTRANSFERASE: 85.33 u/L
  BLOOD UREA NITROGEN: 19 mg/dL
  CARBON DIOXIDE: 35 mmol/L
  CHLORIDE: 99.33 MEQ/L
  CHOLESTEROL: 64.33 mg/dL
  CREATINE PHOSPHOKINASE: 366.67 u/L
  CREATININE: 0.22 mg/dL
  GLUCOSE: 133.67 mg/dL
  LACTATE DEHYDROGENASE: 112.33 u/L
  LIPASE: 9 u/L
  PHOSPHORUS: 11.07 mg/dL
  SODIUM: 143.8 MEQ/L
  TOTAL BILIRUBIN: 0.17 mg/dL
  TOTAL PROTEIN: 6.17 G/DL
  URIC ACID: 0.73 mg/dL
[2]
  ABSOLUTE BASOPHIL: 0 CELLS/uL
  ABSOLUTE EOSINOPHIL: 0 CELLS/uL
  ABSOLUTE LYMPHOCYTE: 13682.33 CELLS/uL
  ABSOLUTE MONOCYTE: 492.67 CELLS/uL
  ABSOLUTE SEGMENTED NEUTROPHIL: 958.33 CELLS/uL
  BASOPHIL: 0%
  EOSINOPHIL: 0%
  ERYTHROCYTE COUNT: 6.16 x10E6/uL
  HEMATOCRIT: 39.43%
  HEMOGLOBIN: 14.47 G/DL
  LEUKOCYTE COUNT: 15.13 x10E3/uL
  LYMPHOCYTE: 90%
  MEAN CORPUSCULAR HEMOGLOBIN: 23.5 pg
  MEAN CORPUSCULAR HEMOGLOBIN CONCENTRATION: 36.7 G/DL
  MEAN CORPUSCULAR VOLUME: 64.03 fL
  MONOCYTE: 3.33%
  NEUTROPHIL: 6.67%
  NUCLEATED RED BLOOD CELLS: 0 /100WBC
  PLATELET COUNT: 1311.33 x10E3/uL
  ALANINE AMINOTRANSFERASE: 52.33 u/L
  ALBUMIN: 4.43 G/DL
  ALKALINE PHOSPHATASE: 365.33 u/L
  ASPARTATE AMINOTRANSFERASE: 83 u/L
  BLOOD UREA NITROGEN: 16.33 mg/dL
  CARBON DIOXIDE: 32 mmol/L
  CHLORIDE: 101.33 MEQ/L
  CHOLESTEROL: 79.67 mg/dL
  CREATINE PHOSPHOKINASE: 343 u/L
  CREATININE: 0.2 mg/dL
  GLUCOSE: 138 mg/dL
  LACTATE DEHYDROGENASE: 129.67 u/L
  LIPASE: 9.33 u/L
  PHOSPHORUS: 12.4 mg/dL
  SODIUM: 142.9 MEQ/L
  TOTAL BILIRUBIN: 0.17 mg/dL
  TOTAL PROTEIN: 6.17 G/DL
  URIC ACID: 2.13 mg/dL
[3]
  ABSOLUTE BASOPHIL: 0 CELLS/uL
  ABSOLUTE EOSINOPHIL: 0 CELLS/uL
  ABSOLUTE LYMPHOCYTE: 7076 CELLS/uL
  ABSOLUTE MONOCYTE: 76 CELLS/uL
  ABSOLUTE SEGMENTED NEUTROPHIL: 448 CELLS/uL
  BASOPHIL: 0%
  EOSINOPHIL: 0%
  ERYTHROCYTE COUNT: 6.01 x10E6/uL
  HEMATOCRIT: 37.2%
  HEMOGLOBIN: 14.1 G/DL
  LEUKOCYTE COUNT: 7.6 x10E3/uL
  LYMPHOCYTE: 92.33%
  MEAN CORPUSCULAR HEMOGLOBIN: 23.5 pg
  MEAN CORPUSCULAR HEMOGLOBIN CONCENTRATION: 37.9 G/DL
  MEAN CORPUSCULAR VOLUME: 61.93 fL
  MONOCYTE: 1%
  NEUTROPHIL: 6.67%
  NUCLEATED RED BLOOD CELLS: 0 /100WBC
  PLATELET COUNT: 1145.67 x10E3/uL
  ALANINE AMINOTRANSFERASE: 59.33 u/L
  ALBUMIN: 4.43 G/DL
  ALKALINE PHOSPHATASE: 434 u/L
  ASPARTATE AMINOTRANSFERASE: 94.33 u/L
  BLOOD UREA NITROGEN: 17.33 mg/dL
  CARBON DIOXIDE: 33 mmol/L
  CHLORIDE: 100.33 MEQ/L
  CHOLESTEROL: 75 mg/dL
  CREATINE PHOSPHOKINASE: 622.67 u/L
  CREATININE: 0.12 mg/dL
  GLUCOSE: 113 mg/dL
  LACTATE DEHYDROGENASE: 161.33 u/L
  LIPASE: 9 u/L
  PHOSPHORUS: 10.27 mg/dL
  SODIUM: 144.67 MEQ/L
  TOTAL BILIRUBIN: 0.13 mg/dL
  TOTAL PROTEIN: 5.67 G/DL
  URIC ACID: 0.8 mg/dL

Source: ChEMBL document CHEMBL3885881, “DrugMatrix”
